# Measured values as given in patent publication US20030129193A1 (priority 2001, published 2003).
# Columns and labels:
# Mouse endothelial cells = experiment: Cell based two stage coagulation assay
# Procedure: (§1) Mouse endothelial cells were seeded in 48 well tissue culture plates and allowed to adhere overnight. Cells were stimulated with TNFα at the following concentrations: 500 U/ml; 100 U/ml; 20 U/ml; 4 U/ml; 0.8 U/ml; 0.16 U/ml; and with medium only.
# Endothelial cells were also tested for coagulant activity in a cell based two stage coagulation assay. After incubation with TNFα, cells were washed and incubated with coagulation factor mix (0.5 μg/ml factor VIIa in a mix containing 2.8 μg/ml factor IX, 3.4 μg/ml factor X, 50 μM phospholipids, in calcium buffer). The supernatant of wells was transferred into a 96 well ELISA plate. Substrate S2765 was added and Factor Xa generation measured.
# [1] = system: tissue factor on HUVEC cells; experiment: FACS analysis of tissue factor expression; assay type: cell-based, human; settings: 6 h at 37°; TNFα 500 U/ml, LPS 10 μg/ml, VEGF 1 nM
# Procedure: To analyze tissue factor expression on the surface of endothelial cells, HUVEC cells were incubated with TNFα (500 U/ml), LPS (10 μg/ml) or vascular endothelial growth factor (VEGF, 1 nM) alone or in combination for 6 h at 37°. Cells were then detached and stained for surface expression of human tissue factor with a sheep-anti-human tissue factor antibody (Haemochrom, Essen, Germany) and an appropriate FITC-conjugated secondary antibody. Fluorescent cells were detected on a flow cytometer (Becton Dickinson. San Jose, Calif.).
# VCAM-1 = experiment: FACS for upregulation of VCAM-1; assay type: cell-based, mouse
# Procedure: as §1
# Endothelial cells were then investigated for upregulation of the adhesion molecule VCAM-1 by fluorescence activated cell stain (FACS). To this end, cells were stained with an antibody against murine VCAM-1, followed by an appropriate FITC-conjugated secondary antibody. Fluorescent cells were detected on a flow cytometer (Becton Dickinson. San Jose, Calif.).
# TNFα = settings: cited from earlier work
# [2] = system: cancer patients having progressive disease; settings: human, in vivo; cited from earlier work
# L540 Hodgkin tumors = experiment: Annexin V inhibition of coaguligand-induced thrombosis in vivo; set-up: species or system SCID mice
# Procedure: The ability of Annexin V to inhibit coaguligand-induced thrombosis in vivo was examined in L540 Hodgkin-bearing SCID mice.
# Four hours after the last injection mice were anesthetized and perfused with heparinized saline. Tumors were removed, fixed with 4% formalin, paraffin-embedded and stained with hematoxylene-eosin. The number of thrombosed and non-thrombosed blood vessels were counted and the percentage of thrombosis was calculated.
# [3] = system: Factor X on IL-1α-stimulated bEnd.3 cells; experiment: Chromogenic assay of coaguligand-induced Factor Xa formation; assay type: cell-based; settings: 10 μg per ml
# Procedure: The ability of Annexin V to affect Factor Xa formation induced by coaguligand was determined by a chromogenic assay. […] Annexin V was added at concentrations ranging from 0.1 to 10 μg/ml and cells were incubated for 30 min. before addition of diluted Proplex T. The amount of Factor Xa generated in the presence or absence of Annexin V was determined. Each treatment was performed in duplicate and repeated at least twice.
molecule,measurement,setting,value
TNFα,dose lower than for VCAM-1 upregulation,Mouse endothelial cells,125 fold
same,TNFα at which an increase versus negative control could be detected,Mouse endothelial cells; Factor Xa generation,"0,16 U/ml"
same,tissue factor expression on the surface of HUVEC,[1],upregulated tissue factor expression
same,TNFα required for a measurable increase of VCAM-1 expression,VCAM-1,20 U/ml
Cc1ccc2c(=O)c3cccc(CC(=O)O)c3oc2c1C [DMXAA],"effectiveness in inducing TNFα, less than endotoxin",TNFα,20 fold
"NC(=O)c1nnn(Cc2cc(Cl)c(C(=O)c3ccc(Cl)cc3)c(Cl)c2)c1N [CAI, carboxyamidotriazole]","disease stabilization, patients",[2],49%
"Annexin V: binds to PS with high affinity (protein, UniProt P08758 2-320, looked up) Annexin A5: AQVLRGTVTDFPGFDERADAETLRKAMKGLGTDEESILTLLTSRSNAQRQEISAAFKTLFGRDLLDDLKSELTGKFEKLIVALMKPSRLYDAYELKHALKGAGTNEKVLTEIIASRTPEELRAIKQVYEEEYGSSLEDDVVGDTSGYYQRMLVVLLQANRDPDAGIDEAQVEQDAQALFQAGELKWGTDEEKFITIFGTRSVSHLRKVFDKYMTISGFQIEETIDRETSGNLEQLLLAVVKSIRSIPAYLAETLYYAMKGAGTDDHTLIRVMVSRSEIDLFNIRKEFRKNFATSLYSMIKGDTSGDYKKALLLLCGEDD",coaguligand-induced anti-tumor effects after pre-treatment,"L540 Hodgkin tumors; 100 μg Annexin V, 2 hours before 40 μg anti-VCAM-1•tTF",completely abolished
same,tumor morphology,L540 Hodgkin tumors; 100 μg alone,did not alter tumor morphology
same,inhibition of factor Xa production,[3],58%
